Laboratory results reported in patent publication US20250017889A1, “INHIBITORS OF P1B-TYPE ATPASES” (THE CURATORS OF THE UNIVERSITY OF MISSOURI, priority 2021, published 2025).

Assays:
[1] = tested on: Cu^S cells complemented with ATP7A; assay: Copper toxicity in Cu^S cells complemented with ATP7A; format: cell-based; conditions: 10 μM, 50% cytotoxic copper concentration
Text: 8A illustrates a copper sensitive fibroblast cell line (Cu^S) generated by deleting genes encoding ATP7A, metallothionein-I (MT-I) and metallothionein-II (MT-II). Cu^S cells cannot be propagated in regular medium (DMEM) unless a copper chelator (BCS) is supplied to the medium.
Cu^S cell lines were derived that were complemented by either ATP7A, ATP7B or MT-II.

[2] = tested on: B16 melanoma lung tumors; assay: Melanin production in B16 melanoma tumors on the lungs of mice; format: in vivo, C57BL/6 mice; conditions: 50 mg/kg subcutaneously every other day for 7 days
Method: Previous studies have shown that ATP7A is essential for copper delivery into the secretory pathway to tyrosinase, a copper-dependent enzyme required for melanogenesis. […] To confirm that ATP7A is required for tyrosinase activity, B16 melanoma cells were generated in which the ATP7A gene was deleted by CRISPR-CAS9 to generate ATP7A^KO cells. As expected, tyrosinase activity was absent in the B16 ATP7A^KO cells. […] Wild type B16 melanoma cells were injected by tail vein into C57BL/6 mice to establish metastatic tumors on the lungs. […] Left panel images show the lungs of three different mice immediately after dissection. In control mice, darkly pigmented melanoma nodules were readily apparent on the lungs (white arrows).

[3] = tested on: tyrosinase activity in B16 melanoma cells; assay: Tyrosinase activity in wild type B16 melanoma cells (L-DOPA to DOPAchrome), proxy for ATP7A inhibition; format: cell-based
Text: Tyrosinase is a cuproenzyme involved in melanogenesis that receives copper via ATP7A in the secretory pathway. […] Thus, reductions in tyrosinase activity in wild type B16 cells can be used as a proxy for inhibition of ATP7A. […]

[4] = tested on: ATP7A trafficking in 4T1 breast cancer cells; assay: Copper-stimulated trafficking of ATP7A by immunofluorescence microscopy; format: cell-based; conditions: 10 μM, 4 h, 4T1 cells
Method: Since the copper-stimulated trafficking of ATP7A is dependent on its transport activity, an inhibitor of ATP7A would be expected to block copper-stimulated trafficking of ATP7A. 4T1 breast cancer cells were pre-grown on glass coverslips for 16 hours in media containing 10 μM of the copper chelator bathocuproine disulfonate to create a baseline of low copper levels. […] After 4 h, the cells were fixed, permeabilized and stained with anti-ATP7A antibodies (green). Nuclei were labeled with DAPI stain. In vehicle treated control cells, the ATP7A protein was strongly detected in the perinuclear region (13A), which is consistent with its known location in the trans-Golgi compartment. As expected, the copper treatment stimulated ATP7A trafficking from the perinuclear region into cytoplasmic vesicles (13B).

[5] = target: T1, ATP7A(E1030K) (Homo sapiens, UniProt Q04656, E1030K); assay: Microscale thermophoresis (MST) binding to GFP-ATP7A(E1030K) mutant; conditions: relative to wild type ATP7A
T1 construct: expressed in transfected cells; host or cells: HEK293 (detergent-free lysate)
T1 sequence (Q04656 1-1500 E1030K): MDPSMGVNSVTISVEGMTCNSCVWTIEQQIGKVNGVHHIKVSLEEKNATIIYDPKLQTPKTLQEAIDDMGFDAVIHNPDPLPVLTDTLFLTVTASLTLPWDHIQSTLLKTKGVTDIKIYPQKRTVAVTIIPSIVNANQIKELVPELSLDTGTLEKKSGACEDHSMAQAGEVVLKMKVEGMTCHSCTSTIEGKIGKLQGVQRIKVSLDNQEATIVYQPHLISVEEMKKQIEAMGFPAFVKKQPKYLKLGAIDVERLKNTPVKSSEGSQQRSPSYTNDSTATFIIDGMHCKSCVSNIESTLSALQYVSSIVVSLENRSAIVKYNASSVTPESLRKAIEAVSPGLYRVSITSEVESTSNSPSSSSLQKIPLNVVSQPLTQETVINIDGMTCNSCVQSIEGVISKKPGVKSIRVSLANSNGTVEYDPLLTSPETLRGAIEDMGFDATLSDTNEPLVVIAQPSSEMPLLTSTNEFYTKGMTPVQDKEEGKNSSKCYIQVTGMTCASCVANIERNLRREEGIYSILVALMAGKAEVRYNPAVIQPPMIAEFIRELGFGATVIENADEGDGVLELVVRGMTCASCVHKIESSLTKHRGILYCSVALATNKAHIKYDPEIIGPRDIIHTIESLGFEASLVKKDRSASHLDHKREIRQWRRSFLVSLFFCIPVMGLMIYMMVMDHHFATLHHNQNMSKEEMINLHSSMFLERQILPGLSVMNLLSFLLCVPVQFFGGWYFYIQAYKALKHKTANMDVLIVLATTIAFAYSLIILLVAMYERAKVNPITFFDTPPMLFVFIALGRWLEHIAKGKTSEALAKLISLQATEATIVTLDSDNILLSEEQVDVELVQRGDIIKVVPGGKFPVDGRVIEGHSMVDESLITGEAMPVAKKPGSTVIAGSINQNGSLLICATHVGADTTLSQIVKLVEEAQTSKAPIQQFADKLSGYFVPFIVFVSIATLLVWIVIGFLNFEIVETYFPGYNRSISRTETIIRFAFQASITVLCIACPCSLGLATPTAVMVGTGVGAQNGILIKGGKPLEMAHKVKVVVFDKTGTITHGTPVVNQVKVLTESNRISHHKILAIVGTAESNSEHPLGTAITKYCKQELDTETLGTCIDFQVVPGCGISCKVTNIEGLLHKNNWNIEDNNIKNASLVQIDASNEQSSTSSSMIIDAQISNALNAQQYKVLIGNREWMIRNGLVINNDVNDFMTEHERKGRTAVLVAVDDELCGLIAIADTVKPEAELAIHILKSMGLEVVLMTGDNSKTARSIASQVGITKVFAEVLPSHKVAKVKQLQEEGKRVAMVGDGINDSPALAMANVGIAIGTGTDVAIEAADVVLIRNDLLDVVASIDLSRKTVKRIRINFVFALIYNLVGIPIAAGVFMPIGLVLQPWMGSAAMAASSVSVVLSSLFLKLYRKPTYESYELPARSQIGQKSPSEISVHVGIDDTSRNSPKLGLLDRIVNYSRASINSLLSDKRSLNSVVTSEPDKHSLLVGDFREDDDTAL
Text: 7A is a model of MKV3-coordinating residues in ATP7A which are identical to those of ATP7B except that the negatively charged glutamate at position 1030 (E1030) of ATP7A corresponds to a positively lysine at position 1013 (K1013) in ATP7B. […] To confirm this the E1030 residue in ATP7A was mutated to a lysine to generate an ATP7A(E1030K) mutant protein.

With `N#CC(C(=O)Nc1cccc(C(F)(F)F)c1)C(=S)Nc1ccccc1Cl` (stereo not drawn) [MKV3] the copper toxicity [1] was “enhanced copper toxicity”, the “pigment of melanoma nodules on the lungs” value [2] was “very little pigment” and the “in situ tyrosinase activity” value ([3]; 5 μM, 24 h, wild type B16 melanoma cells) was “loss of tyrosinase activity”. The IC50 ([3]; Mus musculus, B16 cells) was 2.96 ± 0.007 µM, the “copper-stimulated trafficking of ATP7A” value [4] was “blocked” and the “increase of binding affinity by E1030K mutation in ATP7A” value [5] was “approximately 2.7 fold”.
